# Results published in PubChem BioAssay (NCI).
#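 GI50 = concentration required for 50% inhibition of growth. Definition used: TGI = concentration required for complete inhibition of growth.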
# Key:
# Assay in all cases: NCI tumour cell line growth inhibition, 384-well format
# OVCAR-4 ovarian = system: OVCAR-4 ovarian
# TK-10 renal = system: TK-10 renal
# UACC-257 melanoma = system: UACC-257 melanoma
# M14 melanoma = system: M14 melanoma
# COLO 205 colon = system: COLO 205 colon
# MDA-MB-468 breast = system: MDA-MB-468 breast
# DU-145 prostate = system: DU-145 prostate
# PC-3 prostate = system: PC-3 prostate
# RPMI-8226 leukemia = system: RPMI-8226 leukemia
# HCC-2998 colon = system: HCC-2998 colon
# SW-620 colon = system: SW-620 colon
# HT29 colon = system: HT29 colon
# SK-MEL-2 melanoma = system: SK-MEL-2 melanoma
# MDA-MB-231 breast = system: MDA-MB-231 breast
# OVCAR-3 ovarian = system: OVCAR-3 ovarian
# HS 578T breast = system: HS 578T breast
# IGROV1 ovarian = system: IGROV1 ovarian
# UACC-62 melanoma = system: UACC-62 melanoma
# NCI-H226 lung = system: NCI-H226 lung
# LOX IMVI melanoma = system: LOX IMVI melanoma
# A498 renal = system: A498 renal
# MDA-MB-435 melanoma = system: MDA-MB-435 melanoma
# KM12 colon = system: KM12 colon
# NCI/ADR-RES ovarian = system: NCI/ADR-RES ovarian
# U251 glioblastoma = system: U251 glioblastoma
# MOLT-4 leukemia = system: MOLT-4 leukemia
# EKVX NSCLC = system: EKVX NSCLC
# A549 NSCLC = system: A549 NSCLC
# SR leukemia = system: SR leukemia
# SF-268 CNS = system: SF-268 CNS
# MCF7 breast = system: MCF7 breast
# SK-OV-3 ovarian = system: SK-OV-3 ovarian
# CAKI-1 renal = system: CAKI-1 renal
# NCI-H522 lung = system: NCI-H522 lung
# RXF 393 renal = system: RXF 393 renal
# HOP-62 NSCLC = system: HOP-62 NSCLC
# HCT-116 colon = system: HCT-116 colon
# BT-549 breast = system: BT-549 breast
# K-562 leukemia = system: K-562 leukemia
# SF-539 CNS = system: SF-539 CNS
# UO-31 renal = system: UO-31 renal
# SK-MEL-5 melanoma = system: SK-MEL-5 melanoma
# T-47D breast = system: T-47D breast
# NCI-H460 NSCLC = system: NCI-H460 NSCLC
# 786-0 renal = system: 786-0 renal
# OVCAR-5 ovarian = system: OVCAR-5 ovarian
# SF-295 CNS = system: SF-295 CNS
# SNB-19 CNS = system: SNB-19 CNS
# HOP-92 NSCLC = system: HOP-92 NSCLC
# NCI-H322M lung = system: NCI-H322M lung
# NCI-H23 lung = system: NCI-H23 lung
# SNB-75 CNS = system: SNB-75 CNS
# HL-60(TB) leukemia = system: HL-60(TB) leukemia
# SK-MEL-28 melanoma = system: SK-MEL-28 melanoma
# HCT-15 colon = system: HCT-15 colon
# CCRF-CEM leukemia = system: CCRF-CEM leukemia
# MALME-3M melanoma = system: MALME-3M melanoma
smiles,measurement,setting,value
Cc1nc(N)sc1-c1ccnc(Nc2ccc(N3CCOCC3)cc2)n1,GI50,OVCAR-4 ovarian,46000 nM
same,TGI,OVCAR-4 ovarian,> 100000 nM
same,GI50,TK-10 renal,376 nM
same,TGI,TK-10 renal,7480 nM
same,GI50,UACC-257 melanoma,3680 nM
same,TGI,UACC-257 melanoma,9900 nM
same,GI50,M14 melanoma,2410 nM
same,TGI,M14 melanoma,28000 nM
same,GI50,COLO 205 colon,756 nM
same,TGI,COLO 205 colon,16200 nM
same,GI50,MDA-MB-468 breast,132 nM
same,TGI,MDA-MB-468 breast,330 nM
same,GI50,DU-145 prostate,709 nM
same,TGI,DU-145 prostate,75500 nM
same,GI50,PC-3 prostate,463 nM
same,TGI,PC-3 prostate,8530 nM
same,GI50,RPMI-8226 leukemia,375 nM
same,TGI,RPMI-8226 leukemia,2120 nM
same,GI50,HCC-2998 colon,3880 nM
same,TGI,HCC-2998 colon,42000 nM
same,GI50,SW-620 colon,397 nM
same,TGI,SW-620 colon,2390 nM
same,GI50,HT29 colon,596 nM
same,TGI,HT29 colon,2140 nM
same,GI50,SK-MEL-2 melanoma,2190 nM
same,TGI,SK-MEL-2 melanoma,5560 nM
same,GI50,MDA-MB-231 breast,371 nM
same,TGI,MDA-MB-231 breast,4950 nM
same,GI50,OVCAR-3 ovarian,1070 nM
same,TGI,OVCAR-3 ovarian,23100 nM
same,GI50,HS 578T breast,302 nM
same,TGI,HS 578T breast,1560 nM
same,GI50,IGROV1 ovarian,305 nM
same,TGI,IGROV1 ovarian,2090 nM
same,GI50,UACC-62 melanoma,482 nM
same,TGI,UACC-62 melanoma,3370 nM
same,GI50,NCI-H226 lung,416 nM
same,TGI,NCI-H226 lung,2530 nM
same,GI50,LOX IMVI melanoma,767 nM
same,TGI,LOX IMVI melanoma,2530 nM
same,GI50,A498 renal,433 nM
same,TGI,A498 renal,3720 nM
same,GI50,MDA-MB-435 melanoma,1740 nM
same,TGI,MDA-MB-435 melanoma,18700 nM
same,GI50,KM12 colon,378 nM
same,TGI,KM12 colon,15300 nM
same,GI50,NCI/ADR-RES ovarian,2650 nM
same,TGI,NCI/ADR-RES ovarian,> 100000 nM
same,GI50,U251 glioblastoma,1540 nM
same,TGI,U251 glioblastoma,17900 nM
same,GI50,MOLT-4 leukemia,22.4 nM
same,TGI,MOLT-4 leukemia,115 nM
same,GI50,EKVX NSCLC,1350 nM
same,TGI,EKVX NSCLC,5830 nM
same,GI50,A549 NSCLC,440 nM
same,TGI,A549 NSCLC,7610 nM
same,GI50,SR leukemia,32.9 nM
same,TGI,SR leukemia,121 nM
same,GI50,SF-268 CNS,663 nM
same,TGI,SF-268 CNS,5730 nM
same,GI50,MCF7 breast,1620 nM
same,TGI,MCF7 breast,23200 nM
same,GI50,SK-OV-3 ovarian,411 nM
same,TGI,SK-OV-3 ovarian,4870 nM
same,GI50,CAKI-1 renal,381 nM
same,TGI,CAKI-1 renal,2050 nM
same,GI50,NCI-H522 lung,142 nM
same,TGI,NCI-H522 lung,3020 nM
same,GI50,RXF 393 renal,922 nM
same,TGI,RXF 393 renal,2570 nM
same,GI50,HOP-62 NSCLC,504 nM
same,TGI,HOP-62 NSCLC,4580 nM
same,GI50,HCT-116 colon,557 nM
same,TGI,HCT-116 colon,4160 nM
same,GI50,BT-549 breast,190 nM
same,TGI,BT-549 breast,676 nM
same,GI50,K-562 leukemia,1150 nM
same,TGI,K-562 leukemia,> 100000 nM
same,GI50,SF-539 CNS,499 nM
same,TGI,SF-539 CNS,1900 nM
same,GI50,UO-31 renal,619 nM
same,TGI,UO-31 renal,3090 nM
same,GI50,SK-MEL-5 melanoma,1600 nM
same,TGI,SK-MEL-5 melanoma,8430 nM
same,GI50,T-47D breast,5420 nM
same,TGI,T-47D breast,68600 nM
same,GI50,NCI-H460 NSCLC,224 nM
same,TGI,NCI-H460 NSCLC,3130 nM
same,GI50,786-0 renal,1420 nM
same,TGI,786-0 renal,6740 nM
same,GI50,OVCAR-5 ovarian,854 nM
same,TGI,OVCAR-5 ovarian,9330 nM
same,GI50,SF-295 CNS,627 nM
same,TGI,SF-295 CNS,5700 nM
same,GI50,SNB-19 CNS,4420 nM
same,TGI,SNB-19 CNS,> 100000 nM
same,GI50,HOP-92 NSCLC,433 nM
same,TGI,HOP-92 NSCLC,4490 nM
same,GI50,NCI-H322M lung,1650 nM
same,TGI,NCI-H322M lung,26900 nM
same,GI50,NCI-H23 lung,1380 nM
same,TGI,NCI-H23 lung,7560 nM
same,GI50,SNB-75 CNS,653 nM
same,TGI,SNB-75 CNS,2410 nM
same,GI50,HL-60(TB) leukemia,642 nM
same,TGI,HL-60(TB) leukemia,2400 nM
same,GI50,SK-MEL-28 melanoma,1380 nM
same,TGI,SK-MEL-28 melanoma,7040 nM
same,GI50,HCT-15 colon,328 nM
same,TGI,HCT-15 colon,15300 nM
same,GI50,CCRF-CEM leukemia,127 nM
same,TGI,CCRF-CEM leukemia,1060 nM
same,GI50,MALME-3M melanoma,2700 nM
same,TGI,MALME-3M melanoma,> 100000 nM
